According to patent US20160221944A1, “PYRROLIDINE DERIVATIVES AS OXYTOCIN/VASOPRESSIN V1a RECEPTORS ANTAGONISTS” (ObsEva S.A., priority 2013, published 2016):

Assays:
[1] = test system: spontaneous uterine contractions; experiment: Inhibition of spontaneous uterine contractions in anesthetized late-term pregnant rat; format: in vivo; conditions: oral, 10, 30 or 60 mg/kg; at any time during the 170-180 minutes observation
Description: Late-term pregnant (certified at days 19-21 of pregnancy) Sprague Dawley CD (SD) BR female rats (Charles River, Calco, Italy), weighing 350-400 g were anesthetized with urethane (1.05 g/kg, i.p.) and placed on a homeothermic operating table. A midline incision at the hypogastrium level was made, one pregnant uterine horn exposed and its tubal end (near the ovary) was closed by a ligature with surgical silk. […] After the surgical preparation, a 30-min stabilization period was observed and then the effects of increasing doses of compounds of the present invention (given as 10-min i.v. infusion, bolus i.v. or p.o.) were evaluated by measuring the resulting uterine contractions. For the i.v. administration (infusion or bolus) the uterine contractile activity was quantified by calculating the AUC during the 10-min injection period. The percent variation of the AUC values relative to the spontaneous uterine response observed after each compound administration was calculated in comparison to the value recorded before the first dose-administration (basal value). The effect of test compounds of the present invention was evaluated by comparing pre- and post-treatment luminal uterine pressure values. […] Statistical differences between treatment groups at each time-point were determined by using one-way ANOVA followed by Tukey test. […]

vasopressin V1a receptor = vasopressin V1a receptor (Homo sapiens, UniProt P37288); experiment: Binding to vasopressin V1a receptor; conditions: read-out: inhibition constant Ki to the vasopressin V1a receptor
[2] = In vivo stability: isomeric interconversion after single oral and intravenous doses in rats; set-up: species or system rat; conditions: female rats
Description: The animals used in this study were Sprague-Dawley, Crl: CD®BR albino rats. All animals were supplied by Charles River UK Ltd (Margate, Kent, UK). Animals were in the weight range 200-260 g and were approximately 2 months old. Rats were given a unique identity number and were identified by unique tail markings plus cage location.
The dose groups were as follows: 4 female were given an oral dose and 4 female were given an intravenous dose.
(§1) Dose formulations were prepared in an appropriate matrix; intravenous doses were prepared in NP3S, whilst oral doses were prepared in Labrasol:water (1:1 v/v).

[3] = Isomeric interconversion in dose formulations (HPLC); format: physicochemical; conditions: oral (Labrasol:water 1:1) and intravenous (NP3S) dose formulations, pre- and post-dose
Description: as §1

[4] = Qualitative solubility/crystallisation tests on 15 mg scale; format: physicochemical

vasopressin V1a receptor, sequence (P37288 whole entry, species assumed): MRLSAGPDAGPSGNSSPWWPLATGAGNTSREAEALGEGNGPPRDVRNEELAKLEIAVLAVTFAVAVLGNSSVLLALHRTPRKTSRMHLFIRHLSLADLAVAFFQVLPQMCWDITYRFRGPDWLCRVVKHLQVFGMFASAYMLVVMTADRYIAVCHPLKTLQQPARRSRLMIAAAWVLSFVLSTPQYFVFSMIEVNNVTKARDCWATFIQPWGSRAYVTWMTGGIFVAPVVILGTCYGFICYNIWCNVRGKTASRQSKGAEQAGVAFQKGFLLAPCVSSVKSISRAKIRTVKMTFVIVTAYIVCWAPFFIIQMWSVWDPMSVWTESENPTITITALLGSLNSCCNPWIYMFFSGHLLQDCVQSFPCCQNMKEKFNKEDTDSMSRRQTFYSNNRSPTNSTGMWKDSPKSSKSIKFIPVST

Compound	inhibition of uterine contraction [1]	Ki (vasopressin V1a receptor) [nM]	[14C]-E-isomer present in plasma ([2]; 30 mg/kg oral or intravenous, plasma collected up to 6 hours)	isomeric interconversion in vivo ([2]; 30 mg/kg, after oral or intravenous dose administration)	interconversion to E-isomer during dose preparation or administration [3]	Qualitative solubility, Dissolves in: ([4]; DIPE, hot) [vol hot]	Qualitative solubility, Dissolves in: ([4]; IPA, hot) [vol hot]	Qualitative solubility, Dissolves in: ([4]; MIBK, hot) [vol hot]	Qualitative solubility, Dissolves in: ([4]; THF, cold) [vol cold]	Qualitative solubility, Comment ([4]; heptanes)	Qualitative solubility, Dissolves in: ([4]; tBuOH, hot) [vol hot]	Qualitative solubility, Dissolves in: ([4]; toluene, cold) [vol cold]
CO/N=C1\C[C@@H](CO)N(C(=O)c2ccc(-c3ccccc3C)cc2)C1 [(3E,5S)-5-(hydroxymethyl)-1-[(2′-methyl-1,1′-biphenyl-4-yl)carbonyl]pyrrolidin-3-one O-methyloxime]	no inhibition	–	–	–	–	–	–	–	–	–	–	–
CO/N=C1/C[C@@H](CO)N(C(=O)c2ccc(-c3ccccc3C)cc2)C1 [(3Z,5S)-5-(hydroxymethyl)-1-[(2′-methyl-1,1′-biphenyl-4-yl)carbonyl]pyrrolidin-3-one O-methyloxime]	–	120	no evidence	no detectable isomeric interconversion	no detectable interconversion	40	4	4	4	insoluble in 20 vol	6	2
